From article PMC9010763 (The Journal of Biological Chemistry, 2022)
Read-outs that look alike come from different tables or passages of the source.

Legend:
Format in all cases: biochemical
SLC35B1 [1] = target: T1, SLC35B1 (Homo sapiens, UniProt P78383); assay: [α^[…]]ATP uptake competition and counter-exchange, purified protein in PC-liposomes
T1 construct: isoform 1, C-terminal GFP fusion (hSLC35B1-GFP)
T1 sequence (P78383 1-322): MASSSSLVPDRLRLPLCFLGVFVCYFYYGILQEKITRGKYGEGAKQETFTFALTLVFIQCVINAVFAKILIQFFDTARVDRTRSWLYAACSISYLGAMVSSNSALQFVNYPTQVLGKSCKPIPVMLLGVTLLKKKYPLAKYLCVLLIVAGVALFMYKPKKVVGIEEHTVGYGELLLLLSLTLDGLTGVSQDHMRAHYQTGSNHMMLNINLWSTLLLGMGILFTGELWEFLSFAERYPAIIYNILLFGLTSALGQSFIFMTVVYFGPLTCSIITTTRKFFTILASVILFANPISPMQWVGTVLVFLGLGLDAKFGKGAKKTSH

SLC35B1 [2] = target: T1, SLC35B1; assay: inhibition of [α^[…]]ATP uptake at […], purified protein in PC-liposomes; details: read-out: % inhibition at 1 mM
SLC35B1 [3] = target: T1, SLC35B1; assay: inhibition of [α^[…]]ATP uptake at […]; counter-exchange and efflux, purified protein in PC-liposomes; details: read-out: % inhibition at 1 mM
SLC35B1 [4] = target: T1, SLC35B1; assay: inhibition of [α^[…]]ATP uptake at […]; counter-exchange, purified protein in PC-liposomes; details: read-out: % inhibition at 1 mM

Nc1ncnc2c1ncn2[C@@H]1O[C@H](COP(=O)(O)OP(=O)(O)O)[C@@H](O)[C@H]1O [ADP]
Ki (SLC35B1 [1]; read-out: Ki): 56.1 µM

Nc1ncnc2c1ncn2[C@@H]1O[C@H](COP(=O)(O)OP(=O)(O)OP(O)(O)=S)[C@@H](O)[C@H]1O [ATPɣ[-S]]
inhibition at 1000 µM (SLC35B1 [2]): > 85%

Nc1ccn([C@@H]2O[C@H](COP(=O)(O)OP(=O)(O)OP(=O)(O)O)[C@@H](O)[C@H]2O)c(=O)n1 [CTP]
inhibition at 1000 µM (SLC35B1 [3]): 50 to 60%

Nc1nc2c(ncn2[C@@H]2O[C@H](COP(=O)(O)OP(=O)(O)O)[C@@H](O)[C@H]2O)c(=O)[nH]1 [GDP]
inhibition at 1000 µM (SLC35B1 [3]): 50 to 60%

Nc1nc2c(ncn2[C@@H]2O[C@H](COP(=O)(O)OP(=O)(O)OP(=O)(O)O)[C@@H](O)[C@H]2O)c(=O)[nH]1 [GTP]
Ki (SLC35B1 [1]; read-out: Ki): 275 µM

O=c1ccn([C@@H]2O[C@H](COP(=O)(O)OP(=O)(O)O)[C@@H](O)[C@H]2O)c(=O)[nH]1 [UDP]
Ki (SLC35B1 [1]): 83 µM

O=c1ccn([C@@H]2O[C@H](COP(=O)(O)OP(=O)(O)OP(=O)(O)O)[C@@H](O)[C@H]2O)c(=O)[nH]1 [UTP]
inhibition at 1000 µM (SLC35B1 [3]): 70 to 85%

Nc1ncnc2c1ncn2[C@H]1C[C@H](O)[C@@H](COP(=O)(O)OP(=O)(O)OP(=O)(O)O)O1 [dATP]
inhibition at 1000 µM (SLC35B1 [4]): > 85%
